In patent publication US9096560B2, “5-heterocyclylalkyl-3-hydroxy-2-phenylcyclopent-2-enones as herbicides” (Syngenta Limited, priority 2008, dated 2015):

Columns and labels:
Assay type in all cases: in vivo
Lolium perenne (LOLPE) [1] = assay: Example B pre-emergence herbicidal test, LOLPE; conditions: Lolium perenne, 312 h, rate 250 g/ha, evaluated after 13 days, 100=total damage to plant, 0=no damage to plant
Summary of the method: (§1)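 After sowing in standard soil, pots spent a day in the glasshouse (24/16° C, 14 h photoperiod, 65% humidity) before spraying with compound in acetone/water 50:50 with 0.5% Tween 20. Watering followed twice a day, and plants were evaluated 13 days on, with 100 meaning complete damage.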

[2] = test system: Alopecurus myosuroides (ALOMY); assay: Example B pre-emergence herbicidal test, ALOMY; conditions: Alopecurus myosuroides, 312 h, rate 250 g/ha, evaluated after 13 days, 100=total damage to plant, 0=no damage to plant
Summary of the method: as §1

[3] = test system: Echinochloa crus-galli (ECHCG); assay: Example B pre-emergence herbicidal test, ECHCG; conditions: Echinochloa crus-galli, 312 h, rate 250 g/ha, evaluated after 13 days, 100=total damage to plant, 0=no damage to plant
Summary of the method: as §1

Avena fatua (AVEFA) [4] = assay: Example B pre-emergence herbicidal test, AVEFA; conditions: Avena fatua, 312 h, rate 250 g/ha, evaluated after 13 days, 100=total damage to plant, 0=no damage to plant
Summary of the method: as §1

Lolium perenne (LOLPE) [5] = assay: Example B post-emergence herbicidal test, LOLPE; conditions: Lolium perenne, 312 h, rate 250 g/ha, evaluated after 13 days, scale 0-100, read-out: Post-emergence activity LOLPE (100=total damage to plant; 0=no damage to plant)
Summary of the method: (§2)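 Foliar application to 8-day-old pot-grown seedlings in a glasshouse (24/16 °C, 14 h photoperiod, 65% humidity). Spray solution was derived from an acetone/water (50:50) formulation with 0.5% Tween 20. Injury was assessed 13 days later on a 0–100 scale.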

[6] = test system: Alopecurus myosuroides (ALOMY); assay: Example B post-emergence herbicidal test, ALOMY; conditions: Alopecurus myosuroides, 312 h, rate 250 g/ha, evaluated after 13 days, scale 0-100, read-out: Post-emergence activity ALOMY (100=total damage to plant; 0=no damage to plant)
Summary of the method: as §2

[7] = test system: Echinochloa crus-galli (ECHCG); assay: Example B post-emergence herbicidal test, ECHCG; conditions: Echinochloa crus-galli, 312 h, rate 250 g/ha, evaluated after 13 days, scale 0-100, read-out: Post-emergence activity ECHCG (100=total damage to plant; 0=no damage to plant)
Summary of the method: as §2

Avena fatua (AVEFA) [8] = assay: Example B post-emergence herbicidal test, AVEFA; conditions: Avena fatua, 312 h, rate 250 g/ha, evaluated after 13 days, scale 0-100, read-out: Post-emergence activity AVEFA (100=total damage to plant; 0=no damage to plant)
Summary of the method: as §2

Row | Compound | pest or weed control at 250 g/ha (Lolium perenne (LOLPE) [1]) [%] | pest or weed control at 250 g/ha [2] [%] | pest or weed control at 250 g/ha [3] [%] | pest or weed control at 250 g/ha (Avena fatua (AVEFA) [4]) [%] | pest or weed control at 250 g/ha (Lolium perenne (LOLPE) [5]) [%] | pest or weed control at 250 g/ha [6] [%] | pest or weed control at 250 g/ha [7] [%] | pest or weed control at 250 g/ha (Avena fatua (AVEFA) [8]) [%]
1 | CCSC(=O)N1CCC(/C=C2\CC(=O)C(c3c(C)cc(C)cc3C)C2=O)C1 (stereo not shown) [Compound T33] | 90 | 60 | 90 | 50 | 60 | 60 | 60 | 70
2 | Cc1cc(C)c(C2=C(OC(=O)OC(C)(C)C)CC(CC3CCN(C(=O)OC(C)(C)C)CC3)C2=O)c(C)c1 (stereo not shown) [Compound P54] | 100 | 80 | 100 | 70 | 40 | 70 | 80 | 50
3 | CCc1cc(C)cc(C)c1C1C(=O)C/C(=C\C2CCOC2)C1=O (stereo not shown) [Compound T59] | 100 | 90 | 100 | 90 | 100 | 90 | 90 | 100
4 | Cc1cc(C)c(C2C(=O)CC(CC3CCN(C(=O)C(F)(F)F)CC3)C2=O)c(C)c1 (stereo not shown) [Compound T163] | 80 | 50 | 60 | 60 | 100 | 90 | 90 | 100
5 | Cc1cc(C)c(C2C(=O)CC(CC3CCN(C(=O)c4cc(F)c(Cl)nc4Cl)CC3)C2=O)c(C)c1 (stereo not shown) [Compound T106] | 20 | 20 | 20 | 30 | 30 | 40 | 30 | 10
6 | Cc1cc(C)c(C2C(=O)CC(CC3CCN(C(=O)OCCCl)CC3)C2=O)c(C)c1 (stereo not shown) [Compound T103] | 30 | 30 | 10 | 20 | 50 | 50 | 30 | 60
7 | CC(=O)N1CCCCC1CC1CC(=O)C(c2c(C)cc(C)cc2C)C1=O (stereo not shown) [Compound T48] | 90 | 90 | 100 | 90 | 70 | 90 | 100 | 90
8 | Cc1cc(C)c(C2C(=O)CC(CC3CCN(C(=O)C(F)(F)C(F)F)C3)C2=O)c(C)c1 (stereo not shown) [Compound T131] | 90 | 70 | 100 | 70 | 100 | 90 | 90 | 90
9 | Cc1cc(C)c(C2C(=O)CC(CC3CCN(C(=O)C(Cl)(Cl)Cl)CC3)C2=O)c(C)c1 (stereo not shown) [Compound T105] | 60 | 20 | 40 | 30 | 50 | 30 | 30 | 40
10 | COC(=O)N1CCC(CC2CC(=O)C(c3c(C)cc(C)cc3C)C2=O)C1 (stereo not shown) [Compound T43] | 100 | 80 | 100 | 100 | 100 | 90 | 80 | 90
11 | Cc1cc(-c2ccc(F)cc2)cc(C)c1C1C(=O)C/C(=C\C2CCOCC2)C1=O (stereo not shown) [Compound T61] | 90 | 70 | 90 | 80 | 90 | 90 | 100 | 100
